Test results taken from patent US5547980A, “Bicyclic sulfones, processes for their production and pharmaceutical agents containing them” (Boehringer Mannheim GmbH, priority 1991, dated 1996).
Where a name gives a salt, the structure may show the parent alone.

Tested on: passively sensitized guinea-pig lung parenchymal strips
Test: Inhibition of the antigen-induced constriction of passively sensitized guinea-pig lung parenchymal strips in vitro (organ bath)
Assay type: cell-based, guinea-pig (Pirbright-White)
Conditions: Cavia porcellus, 20 μg/ml, ovalbumin 0.1 μg/ml, 20 min/37° C. preincubation time (organ bath technique)
Description: Inhibition of the antigen-induced constriction of passively sensitized guinea-pig - lung parenchymal - strips in vitro (organ bath) For the in vitro examination of the compounds according to the invention, the inhibition of the antigen-induced constriction of passively sensitized guinea-pig lung parenchymal strips was measured as described in the following: Pirbright-White guinea-pigs were stunned by a blow on the neck and exsanguinated. The lungs were rinsed substantially free of blood in situ using Krebs buffer, pH 7.4. Subsequently the lung was excised, cut into strips (ca. 20×4×4 mm) and the strips were passively sensitized for one hour at room temperature with a 1:50 dilution of a homologous anti-ovalbumin antiserum and then washed once with Krebs buffer. The antiserum had previously been produced in guinea-pigs of the same strain according to […] (1) by repeated injection of ovalbumin (2×crystallized) with addition of complete Freund's adjuvant. The antiserum was stored undiluted at -18° C. until use. Subsequently the lung strips were suspended individually in 10 ml water baths on an isometric measuring recorder with an initial tension of 1.2 g. Afterwards the baths were filled with Krebs buffer and gassed continuously at 37° C. with O2 (95%) and CO2 (5%). The constrictions of the lung strips were recorded via an amplifier on a recorder. […] The inhibitory effects of the compounds according to the invention were expressed as percentage reduction of the constriction amplitudes of the "samples with test substance" in relation to the "untreated control constrictions". (1) […]. Johnstone Quantitative studies on anaphylaxis in guinea-pigs passively sensitized with homologous antibody. Inter. Arch. Allergy 41, 648-454 (1971) |% inhibition of the ovalbumin (0.1 μg/ml) induced |constriction of passively sensitized lung parenchymal strips |(guinea-pig) |20 min/37° C. preincubation time (organ bath technique)

Row | SMILES | inhibition at 20 µg/mL [%]
1 | O=S1(=O)CC(N2CCCC2)C(N2CCCC2)c2ccc(Cl)cc21 (stereo not drawn) [3a), 7-chloro-3,4-bis-pyrrolidino-benzo[b]thian-1,1-dioxide] | 25
2 | CCN(CC)CC1=Cc2ccc(Cl)cc2S1(=O)=O [Example 1, 6-chloro-2-(N,N-diethylamino-methyl)benzo[b]thiophene-1,1 dioxide] | 53
3 | CCCCNC1CS(=O)(=O)c2cc(Cl)ccc2C1NCCCC (stereo not drawn) [Example 5l), 7-chloro-3,4-bis-n-butyl-amino-benzo[b]thian-1,1-dioxide-dihydrochloride] | 25
4 | CCN(CC)CC1=Cc2cc(Cl)c(Cl)cc2S1(=O)=O [Example 6, 5,6-dichloro-2-(N,N-diethylamino-methyl)benzo[b]-thiophene-1,1-dioxide-hydrochloride] | 51
5 | CCN(CC)CC1=Cc2ccc(Cl)c(Cl)c2S1(=O)=O [Example 7, 6,7-dichloro-2-(N,N-diethylamino-methyl)benzo[b]thiophene-1,1-dioxide-hydrochloride] | 88

Same assay, conditions: Cavia porcellus, 200 μg/ml (footnote *), ovalbumin 0.1 μg/ml, 20 min/37° C. preincubation time (organ bath technique)

Row | SMILES | inhibition at 200 µg/mL [%]
6 | Cn1c(=O)c2[nH]cnc2n(C)c1=O [aminophylline, reference compound] | 26
